The term EC50 denotes the concentration that produces a half-maximal response.

This is an account of results in publication PMC12186257, “Serendipitous and Systematic Chemoproteomic Discovery of MBLAC2, HINT1, and NME1‑4 Inhibitors from Histone Deacetylase-Targeting Pharmacophores” (ACS Chemical Biology, 2025).

The target of data set [1] is casein kinase 2 (CK2) complex proteins (CSNK2A1/3, CSNK2A2, CSNK2B, EIF3J). Kind of data set: Kinobead competition assay. The settings on record: dose-dependent competition. Type of data set: binding, human. From the text:
The binding of KV-24 and KV-30 to the nucleotide-binding pocket raises the question of whether these compounds also target other nucleotide-binding proteins, such as kinases. To evaluate potential off-target effects, we performed Kinobead competition assays. This chemoproteomic approach is conceptually very similar to the one used here in that broad spectrum kinase inhibitors are immobilized on beads. […] PDE1C is a cAMP/cGMP nucleotide-binding protein that features two divalent metal cation cofactors. The hydroxamic acid moiety of KV-24 might chelate these metal cofactors, supporting the hypothesis that KV-24 binds the active site of PDE1C. […]
Given that local GTP production by NME1 and NME2 is essential for fueling dynamin-driven endocytosis, we investigated the effect of KV-50-mediated NME1/2 inhibition on fluorescent transferrin (TF) uptake in cells. HeLa cells were treated with KV-50 or known endocytosis inhibitors (Pitstop-2 and Dynasore), and surface-bound and internalized fluorescent TF were quantified. […]
LC-MS/MS. The different sample types were measured with different LC-MS/MS settings. MBLAC2 2-dose competition assays were measured with the Lumos1 setup, MBLAC2 9-dose competition assays were measured with the Lumos2 setup, and kinobeads assays were measured with the Eclipse setup. […]

The next data set relates to SW620 cells. Kind of data set: SW620 confluency and metabolic activity (Alamar blue assay). The conditions noted are these: Homo sapiens, SW-620. Type of data set: cell-based.
The test system of data set [2] is compound-binding proteins such as HDACs, MBLAC2, ISOC1/2, ALDH2, and GATD3A. Kind of data set: chemoproteomic competition assay, proteome-wide target binding profile. More on the design: species or system human. The settings on record: dose-dependent competition. The procedure:
(§1) MBLAC2 is a metalloenzyme predicted to harbor one or two Zn^2+ ions in its active site. […] In this assay, compounds of interest are incubated at increasing concentrations with a mixture of lysates of MV4–11 and SW620 cells. The compound-treated lysates are then mixed with bead-immobilized hydroxamic acid-containing compounds iA, iC, and iQ (immobilized Quisinostat), which pull down compound-binding proteins such as HDACs, MBLAC2, ISOC1/2, ALDH2, and GATD3A (Figure a) that can be identified and quantified by mass spectrometry (MS). Proteins targeted by the library compounds in a preincubation step are prevented from being pulled down by the immobilized probes, leading to a dose-dependent reduction in MS signal. Initially, 12 metal-chelating compounds were profiled at two concentrations (10 μM and 100 μM) (Figure S3).
(§2) Chemoproteomic competition assays
Sample preparation. For the MBLAC2 and HDAC inhibitor competition assay, the generation of affinity matrices, lysate generation, pulldown assay, and sample preparation were performed as described in detail in REF1. For the kinobeads assay, the generation of affinity matrices, lysate generation, pulldown assay, and sample preparation were performed as described in detail in REF2.
(§3) LC-MS/MS. The different sample types were measured with different LC-MS/MS settings. MBLAC2 2-dose competition assays were measured with the Lumos1 setup, MBLAC2 9-dose competition assays were measured with the Lumos2 setup, and kinobeads assays were measured with the Eclipse setup.
Peptides were analyzed via LC–MS/MS on a Dionex Ultimate3000 nano HPLC coupled to either one of two Orbitrap Fusion Lumos mass spectrometers, or to an Orbitrap Eclipse mass spectrometer, operated via the Thermo Scientific Xcalibur software.
In the all setups, peptides were loaded on a trap column (100 μm × 2 cm, packed in-house with Reprosil-Gold C18 ODS-3 5 μm resin, Dr. Maisch, Ammerbuch) and washed with 5 μL/min solvent A (0.1% formic acid in HPLC grade water) for 10 min. Peptides were then separated on an analytical column (75 μm × 40 cm, packed in-house with Reprosil-Gold C18 3μm resin, Dr. Maisch, Ammerbuch) using a 50 min gradient ranging from 4 to 32% solvent B (0.1% formic acid, 5% DMSO in acetonitrile) in solvent A (0.1% formic acid, 5% DMSO in HPLC grade water) at a flow rate of 300 nL/min.
The mass spectrometers were operated in data-dependent mode, automatically switching between MS1 and MS2 spectra. MS1 spectra were acquired over a mass-to-charge (m/z) range of 360–1300 m/z at a resolution of 60,000 (at m/z 200) in the Orbitrap using a maximum injection time of 50 ms and an automatic gain control (AGC) target value of 4e5.
In Lumos settings, up to 12 peptide precursors were isolated in (isolation width of 1.2 Th for Lumos1 and 1.7 for Lumos2, maximum injection time of 75 ms, AGC value of 1e5 for Lumos1 and 2e5 for Lumos2), fragmented by HCD using 30% normalized collision energy (NCE) and analyzed in the Orbitrap at a resolution of 15,000 (Lumos2) or 30,000 (Lumos1). The dynamic exclusion duration of fragmented precursor ions was set to 20 s (Lumos1) or 30 s (Lumos2). In Eclipse measurements, a cycle time of 2 s was chosen. Peptides were isolated in the quadrupole with an isolation offset of 1.2 (isolation width of 1.2 Th, maximum injection time of 54 ms, AGC target of 200%) and fragmented by […]

A further data set has as its target recombinant NME1–4. Kind of data set: nucleoside diphosphate kinase activity assay (ATP production from ADP and GTP, Kinase-GLO). The settings on record: ADP (150 μM) and GTP (150 μM); range over all four enzymes; read-out: EC50 inhibition of NME1–4. It counts as biochemical. On the technique in general: Kinase-Glo measures the ATP left after a reaction by luminescence.

Another data set deals with HeLa cells. Kind of data set: clathrin-mediated endocytosis of fluorescently labeled transferrin. It counts as cell-based.
For the next data set, the target named is T1, HDAC6 (Homo sapiens, UniProt Q9UBN7).
T1 construct: incubated at increasing concentrations with a mixture of lysates of MV4–11 and SW620 cells; endogenous in cells; host or cells: mixed lysate of MV4-11 and SW620 cells
T1 sequence (Q9UBN7 1-1215): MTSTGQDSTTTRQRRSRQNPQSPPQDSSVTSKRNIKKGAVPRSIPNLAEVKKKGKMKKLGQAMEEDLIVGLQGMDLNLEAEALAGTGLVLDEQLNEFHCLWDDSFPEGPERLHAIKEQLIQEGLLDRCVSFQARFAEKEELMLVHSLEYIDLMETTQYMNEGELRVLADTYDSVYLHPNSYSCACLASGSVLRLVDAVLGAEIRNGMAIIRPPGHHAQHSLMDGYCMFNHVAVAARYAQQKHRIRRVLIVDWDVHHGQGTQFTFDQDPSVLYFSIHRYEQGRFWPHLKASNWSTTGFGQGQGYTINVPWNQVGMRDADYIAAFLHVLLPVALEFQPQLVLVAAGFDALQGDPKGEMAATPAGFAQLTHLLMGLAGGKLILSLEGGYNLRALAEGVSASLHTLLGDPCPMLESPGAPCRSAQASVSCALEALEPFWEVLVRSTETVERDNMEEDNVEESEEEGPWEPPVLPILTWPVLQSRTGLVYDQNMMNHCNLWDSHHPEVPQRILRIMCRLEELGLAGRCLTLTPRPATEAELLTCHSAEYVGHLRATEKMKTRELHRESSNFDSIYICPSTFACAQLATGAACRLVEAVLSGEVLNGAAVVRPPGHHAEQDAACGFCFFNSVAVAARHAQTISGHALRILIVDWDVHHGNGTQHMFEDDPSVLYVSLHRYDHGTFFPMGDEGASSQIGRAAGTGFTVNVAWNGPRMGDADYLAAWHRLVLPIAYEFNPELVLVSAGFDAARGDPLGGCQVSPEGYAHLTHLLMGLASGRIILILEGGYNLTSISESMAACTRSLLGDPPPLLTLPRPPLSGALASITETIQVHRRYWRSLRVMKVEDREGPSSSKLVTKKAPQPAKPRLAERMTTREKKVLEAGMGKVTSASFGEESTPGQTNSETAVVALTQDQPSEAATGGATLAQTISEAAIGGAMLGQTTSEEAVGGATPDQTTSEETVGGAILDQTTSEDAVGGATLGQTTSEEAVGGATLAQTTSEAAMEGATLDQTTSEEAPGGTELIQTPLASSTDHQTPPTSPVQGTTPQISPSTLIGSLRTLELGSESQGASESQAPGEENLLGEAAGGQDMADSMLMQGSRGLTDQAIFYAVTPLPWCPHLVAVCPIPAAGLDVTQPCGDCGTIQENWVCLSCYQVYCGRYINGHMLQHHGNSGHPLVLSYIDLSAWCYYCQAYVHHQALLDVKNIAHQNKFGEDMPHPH
Kind of data set: chemoproteomic competition assay (MV4-11/SW620 lysate, iA/iC/iQ beads, MS readout). It counts as binding. The settings on record: two-dose (1 μM and 10 μM) assay. The procedure:
as §1, with “Initially, 12 metal-chelating compounds were profiled at two concentrations (10 μM and 100 μM) (Figure S3).” left out
as §2
(§4) Sample preparation. […]
as §3
(§5) Peptides were analyzed via LC–MS/MS on a Dionex Ultimate3000 nano HPLC coupled to either one of two Orbitrap Fusion Lumos mass spectrometers, or to an Orbitrap Eclipse mass spectrometer, operated via the Thermo Scientific Xcalibur software. […]

In another data set the target is T2, MBLAC2 (Homo sapiens, UniProt Q68D91).
T2 construct: incubated at increasing concentrations with a mixture of lysates of MV4–11 and SW620 cells; endogenous in cells; host or cells: mixed lysate of MV4-11 and SW620 cells
T2 sequence (Q68D91 1-279): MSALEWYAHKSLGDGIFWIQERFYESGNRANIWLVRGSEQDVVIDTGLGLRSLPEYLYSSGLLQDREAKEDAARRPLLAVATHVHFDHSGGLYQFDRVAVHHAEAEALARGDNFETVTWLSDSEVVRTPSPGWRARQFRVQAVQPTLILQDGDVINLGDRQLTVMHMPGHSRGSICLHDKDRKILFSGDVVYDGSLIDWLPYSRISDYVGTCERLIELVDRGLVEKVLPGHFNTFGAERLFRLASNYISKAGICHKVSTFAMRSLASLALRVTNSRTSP
The description is as above. The conditions noted are these: two-dose (1 μM and 10 μM) assay. It counts as binding.

Another data set has as its system NMEs. The conditions noted are these: free nonacetylated Quisinostat; prior competition experiments; cited from earlier work.
The next data set addresses T3, ISOC1 (Homo sapiens, UniProt Q96CN7).
T3 construct: incubated at increasing concentrations with a mixture of lysates of MV4–11 and SW620 cells; endogenous in cells; host or cells: mixed lysate of MV4-11 and SW620 cells
T3 sequence (Q96CN7 1-298): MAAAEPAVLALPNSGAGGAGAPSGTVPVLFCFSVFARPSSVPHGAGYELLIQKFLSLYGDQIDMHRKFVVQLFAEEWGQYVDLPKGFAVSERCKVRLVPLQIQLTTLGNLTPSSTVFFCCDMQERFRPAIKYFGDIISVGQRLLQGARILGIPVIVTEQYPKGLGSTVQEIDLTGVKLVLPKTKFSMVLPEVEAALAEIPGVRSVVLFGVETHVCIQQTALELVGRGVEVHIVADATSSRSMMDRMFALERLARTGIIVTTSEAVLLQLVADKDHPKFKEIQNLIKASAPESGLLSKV
Kind of data set: chemoproteomic competition assay (MV4-11/SW620 lysate, iA/iC/iQ beads, MS readout). Type of data set: binding. The settings on record: nine-dose competition assay. The procedure: as §1, §2, §4, §3, §5
In Lumos settings, up to 12 peptide precursors were isolated in (isolation width of 1.2 Th for Lumos1 and 1.7 for Lumos2, maximum injection time of 75 ms, AGC value of 1e5 for Lumos1 and 2e5 for Lumos2), fragmented by HCD using 30% normalized collision energy (NCE) and analyzed in the Orbitrap at a resolution of 15,000 (Lumos2) or 30,000 (Lumos1). […] Peptides were isolated in the quadrupole with an isolation offset of 1.2 (isolation width of 1.2 Th, maximum injection time of 54 ms, AGC target of 200%) and fragmented by HCD with an NCE of 30% and analyzed in the Orbitrap at a resolution of 30,000. […]

Each structure is given as a SMILES string. Like-named read-outs stand apart in the source and are kept apart here. Where only a bound is given, the exact number is not on record here.

Experimental for HeLa cells: To test this hypothesis, we measured clathrin-mediated endocytosis of fluorescently labeled transferrin (TF) in the presence and absence of MBLAC2 inhibitors.
CME of transferrin and confocal microscopy analyses.For transferrin uptake experiments HeLa cells were seeded on Matrigel-coated coverslips, and incubated with 0.1 % DMSO, or with 100 µM dynasore, 20 µM KV50, 2 µM KV65, or 2 µM KV79 in media containing 10% FCS at 37°C for 20 h.
Experimental for recombinant NME1–4: To evaluate whether KV-50 binding affects NME activity, we performed enzyme activity assays using recombinant NME1–4. The assay measured NME-catalyzed production of ATP from ADP (150 μM) and GTP (150 μM).
Nucleotide diphosphate kinase activity assays. The phosphotransfer activity of the NDPKs (NME1-4) was measured in a reaction mixture containing buffer A (20 mM Tris-HCl pH 8.0, 150 mM NaCl, and 1 mM MgCl2). All the samples were pipetted in replicates on a 384 well plate. One volume of the respective NDPK protein solution (NME1-4) was added from stock proteins (diluted in buffer a to a concentration of 300 pM) to the wells in four replicates. To these wells, one volume of the inhibitors (Six dilutions were prepared, starting with a 30 µM stock solution and then performing three-fold serial dilutions) was added and incubated at room temperature for 30 minutes. Then, one volume of the substrate mixture (300 μM GTP and 30 μM ADP) was added to the protein-inhibitor mixture-containing wells and incubated at room temperature for 30 minutes. Finally, three volumes of the Kinase-GLO reagent (Promega V6711) containing an ATP-dependent firefly luciferase were added to all the wells and five minutes later, the luminescence was measured using a plate reader. Eight different concentrations of ATP (0 - 10 μM) were used as standards for a calibration curve to calculate the amount of ATP produced by the different NDPKs.

As to `Cl.O=C(NO)c1ccc(-c2nc3ccccc3c3[nH]c4ccccc4c23)cc1` [KV-50], the EC50 in [1] was in the range of 1000 to 2000 nM; at recombinant NME1–4, 2000 to 5000 nM. For the same compound, the IC50 is 3600 nM in the data set with SW620 cells (SW620, Alamar blue, read-out: concentration decreasing metabolic activity by 50%) and 870 nM in the data set on SW620 cells (read-out: concentration reducing SW620 cell confluency by 50%). In addition, in data set [2], the “targets / off-targets bound” value was “bound to HINT1 and NME4”. Also, the “morphological changes” value in the data set on HeLa cells (HeLa cells under TF assay conditions, similar in SW-620 and HEK293T) was “rounding and swelling of cells”. Besides, the “ratio of internalized TF to surface-bound TF” value in the data set with HeLa cells (HeLa cells, 20 µM, 20 h) was “reduced ratio of internalized TF to surface-bound TF”.
For the compound `CC(=O)c1ccc(CN2c3ccccc3Sc3ccccc32)cc1` [MM-20], the “concentration up to which no binding to HDAC6” value at HDAC6 was greater than 10 µM. For the same compound, the “concentration up to which no binding to MBLAC2” value at MBLAC2 was greater than 10 µM.
`Cn1cc(CNCC2CCN(c3ncc(C(=O)NO)cn3)CC2)c2ccccc21` [Quisinostat]: the “concentration up to which no binding to NMEs” value in the data set with NMEs is greater than 30 µM.
`COc1ccc(N(C)c2nc(C)nc3ccccc23)cc1OCCCC(=O)NO` [SKLB-23bb] gave an EC50 at ISOC1 of 5600 nM.
